Marks after values point to notes of the source that are not given here.
Experiments:
[1] = Example 6 feeding test in growing piglets, growth and diarrhoea; format: in vivo
Procedure: An amount of a product obtained from baking yeast by hydrolytic treatment, was added to the fodder of growing piglets. The fodder for the reference group contained Olaqvindox chemotherapeutic substance, 50 mg/kg. In the fodder for the yeast group, instead of Olaqvindox, yeast fraction was added in an amount of 0.5%.

[2] = Example 7 feeding test in growing pigs; format: in vivo; settings: Olagvindox 50 ppm, 33 test days
Procedure: An amount of a product obtained from baking yeast by hydrolytic treatment, was added to the fodder of growing pigs. The measurement was implemented as in the preceding example.

[3] = Example 5 feeding test, development of piglets; format: in vivo, pigs
Source text: In this test, four equal groups of pigs were fed with the following fodders:
Group 1: basic fodder (reference)
Group 2: basic fodder+40 ppm Avilamysine
Group 3: basic fodder+product prepared from yeast by hydrolytic treatment, in an amount of 0.5 w-% (of dry matter)
Group 4: basic fodder+product prepared from yeast by hydrolytic treatment, in an amount of 1.0 w-% (of dry matter).

[4] = group 2, basic fodder + 40 ppm Avilamysine

Row | Molecule | Additional growth ([1]; Olaqvindox 50 ppm in fodder) [g/day] | Fodder efficiency kg/kg ([1]; Olaqvindox 50 ppm in fodder) [kg/kg] | Final weight ([1]; Olaqvindox 50 ppm in fodder, initial weight 7.10 kg) [kg] | Diarrhoea index ([1]; Olaqvindox 50 ppm, average, 1 = normal faeces, 2 = loose faeces, 3 = watery diarrhoea) | Treatments for diarrhoea, % of farrows ([1]; Olaqvindox 50 ppm, treated with an antibiotic or with zinc oxide because of diarrhoea) | Fodder efficiency kg/kg [2] [kg/kg] | Additional growth, g/day ([2]; initial weight 21.7 kg) | effect on growth and fodder consumption compared with the reference group ([3]; 40 ppm Avilamysine) | ADG [3, 4] [g/day] | FCR kg fodder/kg Weight increase [3, 4] [kg fodder/kg] | Final weight ([3]; group 2, basic fodder + 40 ppm Avilamysine, starting weight 10.6 kg) [kg]
1 | Cc1c(C(=O)NCCO)[n+]([O-])c2ccccc2[n+]1[O-] [Olaqvindox] | 255 | 1.61 | 12.47 | 2.5 | 100 % of farrows | 2.07 | 777^a g/day |  |  |  | 
2 | Avilamysine |  |  |  |  |  |  |  | increased the growth and fodder consumption effectively | 502 | 1.81 | 24.1
